Laboratory results published in ChEMBL document CHEMBL1146628, “Identification of TNF-alpha inhibitors from a split-pool library based on a tyrosine-proline peptidomimetic scaffold” (Bioorg Med Chem Lett, 2003).
pIC50: −log10 of the molar value.

What was measured:
Conditions in all cases: Homo sapiens
A549 [1] = test: Inhibitory concentration (resynthesized pure material) against TNF-alpha induced apoptosis of A549 cells; assay type: functional, cell-based
A549 [2] = test: Inhibitory concentration (solid phase) against TNF-alpha induced apoptosis of A549 cells; assay type: functional, cell-based
A549 [3] = test: Inhibitory concentration (resynthesized pure material) against TNF-alpha induced apoptosis of A549 cells at 20 uM; assay type: functional

pIC50 (A549 [1]) | pIC50 (A549 [2]) | SMILES | inhibition at 20 µM (A549 [3])
4.89 | 4.81 | CCCCCN(CCCCC)C(=O)[C@@H]1C[C@H](Oc2ccc(C[C@H](NC(=O)c3cnc4ccccc4c3)C(N)=O)cc2)CN1C(=O)c1cnc2ccccc2c1 | 
 |  | CCCCCN(CCCCC)C(=O)[C@@H]1C[C@H](Oc2ccc(C[C@H](NC(=O)CC)C(N)=O)cc2)CN1C(=O)c1cnc2ccccc2c1 | 35%
5.09 | 4.95 | CCCCCN(CCCCC)C(=O)[C@@H]1C[C@H](Oc2ccc(C[C@H](NC(=O)Cc3ccccc3)C(N)=O)cc2)CN1C(=O)c1cnc2ccccc2c1 | 
5.00 |  | CCCCCN(CCCCC)C(=O)[C@@H]1C[C@H](Oc2ccc(C[C@H](NC(=O)C(CC)CC)C(N)=O)cc2)CN1C(=O)c1cnc2ccccc2c1 | 
